Assay results as given in ChEMBL document CHEMBL4177668, “Synthesis and biological evaluation of thiazole derivatives as GPR119 agonists” (Bioorg Med Chem Lett, 2017).
The source made the active and inactive calls. The rule behind the calls is not given here.

Tests used:
[1] = biological target: T1, Glucose-dependent insulinotropic receptor (Homo sapiens) (UniProt Q8TDV5); assay: Activation of human GPR119 expressed in CHOK1 cells co-expressing CRE-luciferase at 1 uM after 6 hrs by luciferase reporter gene assay relative to GSK1292263; type: functional, cell-based
T1 sequence (whole entry): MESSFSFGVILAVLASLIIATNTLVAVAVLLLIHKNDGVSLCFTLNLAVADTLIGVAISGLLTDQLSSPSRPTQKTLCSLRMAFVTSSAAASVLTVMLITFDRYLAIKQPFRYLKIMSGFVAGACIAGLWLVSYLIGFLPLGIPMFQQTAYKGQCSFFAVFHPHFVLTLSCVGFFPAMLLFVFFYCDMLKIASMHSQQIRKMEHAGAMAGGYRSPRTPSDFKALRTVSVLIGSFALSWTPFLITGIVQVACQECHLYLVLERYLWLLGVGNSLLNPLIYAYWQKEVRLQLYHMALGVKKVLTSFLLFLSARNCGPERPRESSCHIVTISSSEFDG

[2] = biological target: T2, Glucose-dependent insulinotropic receptor (Homo sapiens, UniProt Q8TDV5); assay: Agonist activity at human GPR119 expressed in CHOK1 cells co-expressing CRE-luciferase after 6 hrs by luciferase reporter gene assay; type: functional, cell-based
T2 sequence (Q8TDV5 whole entry): T1 sequence (whole entry)

[3] = Metabolic stability in human liver microsomes assessed as compound remaining after 30 mins; type: ADME, microsome; settings: read-out: Stability
[4] = Metabolic stability in rat liver microsomes assessed as compound remaining after 30 mins; type: ADME, microsome; settings: read-out: Stability
Cytochrome P450 1A2 = biological target: T3, Cytochrome P450 1A2 (Homo sapiens, UniProt P05177); assay: Inhibition of CYP1A2 (unknown origin); type: ADME
T3 sequence (P05177 whole entry): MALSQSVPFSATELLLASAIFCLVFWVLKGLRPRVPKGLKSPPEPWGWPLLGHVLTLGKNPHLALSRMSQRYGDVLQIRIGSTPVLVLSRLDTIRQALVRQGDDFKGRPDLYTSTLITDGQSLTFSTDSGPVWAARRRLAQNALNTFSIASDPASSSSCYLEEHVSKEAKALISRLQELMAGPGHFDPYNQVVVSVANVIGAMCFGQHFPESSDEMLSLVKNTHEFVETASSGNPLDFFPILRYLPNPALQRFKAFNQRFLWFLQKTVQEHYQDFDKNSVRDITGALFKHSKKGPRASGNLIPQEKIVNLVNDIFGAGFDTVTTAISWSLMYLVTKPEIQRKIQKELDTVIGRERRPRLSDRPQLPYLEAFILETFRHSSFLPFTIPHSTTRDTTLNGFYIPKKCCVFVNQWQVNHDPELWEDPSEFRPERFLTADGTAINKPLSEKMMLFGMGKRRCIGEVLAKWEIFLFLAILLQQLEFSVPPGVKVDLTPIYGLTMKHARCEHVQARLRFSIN

Cytochrome P450 2A6 = biological target: T4, Cytochrome P450 2A6 (Homo sapiens, UniProt P11509); assay: Inhibition of CYP2A6 (unknown origin); type: ADME
T4 sequence (P11509 whole entry): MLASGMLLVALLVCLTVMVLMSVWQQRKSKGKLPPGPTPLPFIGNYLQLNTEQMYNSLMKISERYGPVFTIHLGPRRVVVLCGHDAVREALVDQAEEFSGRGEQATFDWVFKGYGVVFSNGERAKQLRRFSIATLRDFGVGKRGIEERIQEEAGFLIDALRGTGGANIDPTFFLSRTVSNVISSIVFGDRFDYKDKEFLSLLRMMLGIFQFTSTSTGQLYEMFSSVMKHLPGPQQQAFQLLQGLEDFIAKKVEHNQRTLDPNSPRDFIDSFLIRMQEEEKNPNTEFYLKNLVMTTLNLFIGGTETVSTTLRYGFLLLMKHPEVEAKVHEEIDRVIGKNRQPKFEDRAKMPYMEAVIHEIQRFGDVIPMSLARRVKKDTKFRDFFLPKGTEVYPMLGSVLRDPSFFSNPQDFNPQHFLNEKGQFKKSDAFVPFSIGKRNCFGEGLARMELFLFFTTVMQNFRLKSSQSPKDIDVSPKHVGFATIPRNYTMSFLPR

Cytochrome P450 2C19 = Cytochrome P450 2C19 (Homo sapiens, UniProt P33261); assay: Inhibition of CYP2C19 (unknown origin); type: ADME
Cytochrome P450 2D6 = Cytochrome P450 2D6 (Homo sapiens, UniProt P10635); assay: Inhibition of CYP2D6 (unknown origin); type: ADME
Cytochrome P450 3A4 = Cytochrome P450 3A4 (Homo sapiens, UniProt P08684); assay: Inhibition of CYP3A4 (unknown origin); type: ADME
hERG (KCNH2) = hERG (KCNH2) (Homo sapiens, UniProt Q12809); assay: Inhibition of human ERG at 10 uM
Vero = assay: Cytotoxicity against African green monkey Vero cells; type: cell-based; settings: Chlorocebus sabaeus
L929 = assay: Cytotoxicity against mouse L929 cells; type: cell-based
NIH3T3 = assay: Cytotoxicity against mouse NIH/3T3 cells; type: cell-based
HFL1 = assay: Cytotoxicity against HFL1 cells; type: cell-based; settings: Homo sapiens
CHO-K1 = assay: Cytotoxicity against CHOK1 cells; type: cell-based; settings: Cricetulus griseus
Mus musculus = assay: Antidiabetic activity in C57BL/6 mouse assessed as decrease in plasma glucose AUC at 30 mg/kg, po pretreated for 30 mins followed by glucose challenge measured up to 120 mins by oGTT assay; type: functional, organism-based

Chain of Cytochrome P450 2D6 (P10635 whole entry): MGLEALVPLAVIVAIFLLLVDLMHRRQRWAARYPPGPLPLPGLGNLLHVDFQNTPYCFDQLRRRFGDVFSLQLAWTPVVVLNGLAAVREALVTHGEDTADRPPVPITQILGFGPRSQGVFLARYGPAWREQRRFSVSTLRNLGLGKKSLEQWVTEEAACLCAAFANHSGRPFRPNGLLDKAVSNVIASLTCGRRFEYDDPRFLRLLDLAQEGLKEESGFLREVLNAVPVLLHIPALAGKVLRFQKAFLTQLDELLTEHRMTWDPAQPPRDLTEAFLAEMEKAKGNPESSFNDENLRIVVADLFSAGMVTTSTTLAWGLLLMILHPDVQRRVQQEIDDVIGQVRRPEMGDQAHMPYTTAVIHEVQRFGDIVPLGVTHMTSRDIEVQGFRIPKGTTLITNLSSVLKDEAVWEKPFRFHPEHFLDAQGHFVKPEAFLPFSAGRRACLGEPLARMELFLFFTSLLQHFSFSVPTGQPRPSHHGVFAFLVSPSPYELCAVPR
Chain of Cytochrome P450 3A4 (P08684 whole entry): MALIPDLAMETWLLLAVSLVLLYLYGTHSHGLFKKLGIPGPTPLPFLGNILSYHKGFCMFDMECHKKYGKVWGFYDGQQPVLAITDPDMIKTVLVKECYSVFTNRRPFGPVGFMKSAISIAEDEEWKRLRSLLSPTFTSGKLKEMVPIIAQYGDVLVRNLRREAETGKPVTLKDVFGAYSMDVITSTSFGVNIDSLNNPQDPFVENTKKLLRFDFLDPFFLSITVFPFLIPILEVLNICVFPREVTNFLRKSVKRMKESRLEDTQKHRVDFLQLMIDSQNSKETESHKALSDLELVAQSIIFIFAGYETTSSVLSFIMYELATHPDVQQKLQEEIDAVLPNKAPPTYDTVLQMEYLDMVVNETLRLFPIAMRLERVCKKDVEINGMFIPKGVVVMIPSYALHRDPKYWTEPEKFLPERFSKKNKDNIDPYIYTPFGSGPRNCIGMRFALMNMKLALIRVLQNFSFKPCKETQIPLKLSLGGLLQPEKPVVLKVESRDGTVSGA
Chain of hERG (KCNH2) (Q12809 whole entry): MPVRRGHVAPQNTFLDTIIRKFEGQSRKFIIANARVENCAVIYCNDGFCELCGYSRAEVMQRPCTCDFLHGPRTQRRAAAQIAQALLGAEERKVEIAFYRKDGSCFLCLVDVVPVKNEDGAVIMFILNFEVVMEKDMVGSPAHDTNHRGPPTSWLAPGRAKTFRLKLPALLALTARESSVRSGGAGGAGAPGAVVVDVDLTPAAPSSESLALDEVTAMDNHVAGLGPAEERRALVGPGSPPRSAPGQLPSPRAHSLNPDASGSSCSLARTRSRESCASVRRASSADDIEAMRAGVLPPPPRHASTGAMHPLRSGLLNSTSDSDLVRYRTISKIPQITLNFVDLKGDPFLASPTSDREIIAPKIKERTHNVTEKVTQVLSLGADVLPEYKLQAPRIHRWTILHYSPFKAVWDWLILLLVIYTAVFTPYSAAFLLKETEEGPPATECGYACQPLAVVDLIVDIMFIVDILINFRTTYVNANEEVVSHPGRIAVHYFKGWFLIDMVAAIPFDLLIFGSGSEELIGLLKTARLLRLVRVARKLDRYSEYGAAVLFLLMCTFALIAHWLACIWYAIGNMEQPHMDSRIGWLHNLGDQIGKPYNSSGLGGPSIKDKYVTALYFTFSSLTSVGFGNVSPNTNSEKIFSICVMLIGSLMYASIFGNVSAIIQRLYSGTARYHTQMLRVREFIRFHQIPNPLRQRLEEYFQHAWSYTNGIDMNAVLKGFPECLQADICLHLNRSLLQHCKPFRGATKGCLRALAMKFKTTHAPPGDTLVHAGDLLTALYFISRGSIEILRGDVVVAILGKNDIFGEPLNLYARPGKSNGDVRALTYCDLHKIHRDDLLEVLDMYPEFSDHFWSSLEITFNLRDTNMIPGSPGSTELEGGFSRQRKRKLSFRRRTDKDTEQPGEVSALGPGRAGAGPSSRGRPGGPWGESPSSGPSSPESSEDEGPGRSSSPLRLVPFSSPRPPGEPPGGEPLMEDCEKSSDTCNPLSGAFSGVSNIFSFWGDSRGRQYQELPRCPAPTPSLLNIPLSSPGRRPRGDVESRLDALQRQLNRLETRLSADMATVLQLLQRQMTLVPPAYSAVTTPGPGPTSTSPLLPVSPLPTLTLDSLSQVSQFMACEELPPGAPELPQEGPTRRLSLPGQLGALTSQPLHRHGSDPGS
Chain of Cytochrome P450 2C19 (P33261 whole entry): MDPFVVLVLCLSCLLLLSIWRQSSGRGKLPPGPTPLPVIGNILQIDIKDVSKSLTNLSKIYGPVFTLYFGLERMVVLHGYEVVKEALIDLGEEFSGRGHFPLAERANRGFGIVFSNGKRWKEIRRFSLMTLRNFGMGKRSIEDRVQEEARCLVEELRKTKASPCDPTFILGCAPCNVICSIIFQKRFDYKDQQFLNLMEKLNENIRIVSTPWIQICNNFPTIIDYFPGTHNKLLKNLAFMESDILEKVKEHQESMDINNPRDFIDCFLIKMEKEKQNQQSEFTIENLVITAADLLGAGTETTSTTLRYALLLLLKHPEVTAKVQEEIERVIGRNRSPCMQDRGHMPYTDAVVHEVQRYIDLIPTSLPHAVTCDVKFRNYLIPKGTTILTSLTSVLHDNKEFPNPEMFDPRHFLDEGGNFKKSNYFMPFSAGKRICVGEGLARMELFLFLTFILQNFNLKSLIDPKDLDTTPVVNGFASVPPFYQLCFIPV

Compound: Cc1cc(/C=C2\CC(=O)NC2=O)ccc1OCc1csc(C2CCN(CC(C)(C)F)CC2)n1
- Activity [1]: 46%

Compound: Cc1cc(/C=C2\CC(=O)NC2=O)ccc1OCc1csc(C2CCN(C(=O)OC(C)(C)C)CC2)n1
- Activity [1]: 81%
- EC50 [2]: 19 nM

Compound: CCc1cnc(N2CCC(c3nc(COc4ccc(/C=C5\SC(=S)N(N)C5=O)cc4F)cs3)CC2)nc1
- Activity [1]: 43%

Compound: CC(C)(F)CN1CCC(c2nc(COc3c(F)cc(/C=C4\CC(=O)NC4=O)cc3F)cs2)CC1
- Activity [1]: 42%

Compound: CC(C)(C)OC(=O)N1CCC(c2nc(COc3ccc(/C=C4\CC(=O)NC4=O)cc3)cs2)CC1
- Activity [1]: 57%

Compound: CCc1cnc(N2CCC(c3nc(COc4ccc(/C=C5\CCNC5=O)cc4F)cs3)CC2)nc1
- Activity [1]: 65%
- EC50 [2]: 100 nM

Compound: CC(C)(C)OC(=O)N1CCC(c2nc(COc3ccc(-n4cnnn4)cc3)cs2)CC1
- Activity [1]: 118%
- EC50 [2]: 103 nM

Compound: O=C(O)CCc1cnc(N2CCC(c3nc(COc4ccc(-n5cnnn5)cc4)cs3)CC2)nc1
- Activity [1]: 29%

Compound: CC(C)(O)CN1CCC(c2nc(COc3ccc(/C=C4\CC(=O)NC4=O)cc3)cs2)CC1
- Activity [1]: 27%

Compound: CCc1cnc(N2CCC(c3nc(COc4ccc(/C=C5\CC(=O)N(CCNC(=O)OC(C)(C)C)C5=O)cc4F)cs3)CC2)nc1
- Activity [1]: 63%

Compound: CC(C)(O)CN1CCC(c2nc(COc3c(F)cc(/C=C4\CC(=O)NC4=O)cc3F)cs2)CC1
- Activity [1]: 32%

Compound: CCc1cnc(N2CCC(c3nc(COc4ccc(/C=C5\SC(=S)NC5=O)cc4F)cs3)CC2)nc1
- Activity [1]: 39%

Compound: CCc1cnc(N2CCC(c3nc(COc4ccc(/C=C5\CC(=O)N(CCN6CCOCC6)C5=O)cc4F)cs3)CC2)nc1
- Activity [1]: 49%

Compound: CC(C)(C)OC(=O)NCCNC(=O)CCc1cnc(N2CCC(c3nc(COc4ccc(-n5cnnn5)cc4)cs3)CC2)nc1
- Activity [1]: 30%

Compound: [N-]=[N+]=NCCOCCOCCOCCNC(=O)CCc1cnc(N2CCC(c3nc(COc4ccc(-n5cnnn5)cc4)cs3)CC2)nc1
- Activity [1]: 25%

Compound: CC(C)(F)CN1CCC(c2nc(COc3ccc(/C=C4\CC(=O)NC4=O)cc3F)cs2)CC1
- Activity [1]: 53%

Compound: CC(C)(O)CN1CCC(c2nc(COc3ccc(/C=C4\CC(=O)NC4=O)cc3F)cs2)CC1
- Activity [1]: 31%

Compound: CC(C)(C)OC(=O)N1CCC(c2nc(COc3ccc(/C=C4\CC(=O)NC4=O)cc3F)cs2)CC1
- Activity [1]: 69%
- EC50 [2]: 157 nM

Compound: CCc1cnc(N2CCC(c3nc(COc4ccc(/C=C5\CC(=O)N(c6ccccc6)C5=O)cc4F)cs3)CC2)nc1
- Activity [1]: 67%
- EC50 [2]: 82 nM

Compound: CCc1cnc(N2CCC(c3nc(COc4ccc(/C=C5\CC(=O)NC5=O)cc4)cs3)CC2)nc1
- Activity [1]: 71%
- EC50 [2]: 182 nM

Compound: CCc1cnc(N2CCC(c3nc(COc4ccc(/C=C5\CC(=O)NC5=O)cc4F)cs3)CC2)nc1
- Activity [1]: 94%
- EC50 [2]: 49 nM
- remaining at 0.5 h [3]: 48.9%
- remaining at 0.5 h [4]: 33%
- INH (Cytochrome P450 1A2): > 100 µM
- INH (Cytochrome P450 2A6): > 100 µM
- INH (Cytochrome P450 2C19): > 100 µM
- INH (Cytochrome P450 2D6): > 100 µM
- INH (Cytochrome P450 3A4): > 100 µM
- inhibition at 10 µM (hERG (KCNH2)): 5.3%
- IC50 (Vero): > 100000 nM
- IC50 (L929): > 100000 nM
- IC50 (NIH3T3): > 100000 nM
- IC50 (HFL1): > 100000 nM
- IC50 (CHO-K1): > 100000 nM
- Activity (Mus musculus): Active

Compound: CCc1cnc(N2CCC(c3nc(COc4ccc(/C=C5\CC(=O)N(CCN)C5=O)cc4F)cs3)CC2)nc1
- Activity [1]: 51%

Compound: CC(C)(F)CN1CCC(c2nc(COc3ccc(/C=C4\CC(=O)NC4=O)cc3)cs2)CC1
- Activity [1]: 48%

Compound: CCc1cnc(N2CCC(c3nc(COc4ccc(/C=C5\CC(=O)NC5=O)cc4C)cs3)CC2)nc1
- Activity [1]: 90%
- EC50 [2]: 18 nM
- remaining at 0.5 h [3]: 17.1%
- remaining at 0.5 h [4]: 32.4%
- INH (Cytochrome P450 1A2): > 100 µM
- INH (Cytochrome P450 2A6): > 100 µM
- INH (Cytochrome P450 2C19): > 100 µM
- INH (Cytochrome P450 2D6): > 100 µM
- INH (Cytochrome P450 3A4): > 13.8 µM
- inhibition at 10 µM (hERG (KCNH2)): 3.3%
- IC50 (Vero): > 100000 nM
- IC50 (L929): > 100000 nM
- IC50 (NIH3T3): > 100000 nM
- IC50 (HFL1): > 100000 nM
- IC50 (CHO-K1): > 100000 nM
- Activity (Mus musculus): Active

Compound: CCc1cnc(N2CCC(c3nc(COc4ccc(/C=C5\CC(=S)N(CC(=O)O)C5=O)cc4F)cs3)CC2)nc1
- Activity [1]: 32%

Compound: CC(C)(C)OC(=O)N1CCC(c2nc(COc3c(F)cc(/C=C4\CC(=O)NC4=O)cc3F)cs2)CC1
- Activity [1]: 41%

Compound: NCCNC(=O)CCc1cnc(N2CCC(c3nc(COc4ccc(-n5cnnn5)cc4)cs3)CC2)nc1
- Activity [1]: 27%

Compound: O=C(CCc1cnc(N2CCC(c3nc(COc4ccc(-n5cnnn5)cc4)cs3)CC2)nc1)NOCc1ccccc1
- Activity [1]: 26%

Compound: NC(=O)CCc1cnc(N2CCC(c3nc(COc4ccc(-n5cnnn5)cc4)cs3)CC2)nc1
- Activity [1]: 22%

Compound: CCc1cnc(N2CCC(c3nc(COc4c(F)cc(/C=C5\CC(=O)NC5=O)cc4F)cs3)CC2)nc1
- Activity [1]: 59%
- EC50 [2]: 211 nM

Compound: C[N+](C)(C)CCNC(=O)CCc1cnc(N2CCC(c3nc(COc4ccc(-n5cnnn5)cc4)cs3)CC2)nc1
- Activity [1]: 28%

Compound: CCc1cnc(N2CCC(c3nc(COc4ccc(/C=C5\CC(=O)N(CC6CCOCC6)C5=O)cc4F)cs3)CC2)nc1
- Activity [1]: 61%
- EC50 [2]: 240 nM

Compound: N=C(N)NC(=N)N1CCC(c2nc(COc3ccc(-n4cnnn4)cc3)cs2)CC1
- Activity [1]: 20%

Compound: NCCOCCOCCOCCNC(=O)CCc1cnc(N2CCC(c3nc(COc4ccc(-n5cnnn5)cc4)cs3)CC2)nc1
- Activity [1]: 28%

Compound: CCOC(=O)CCc1cnc(N2CCC(c3nc(COc4ccc(-n5cnnn5)cc4)cs3)CC2)nc1
- Activity [1]: 34%

Compound: CCc1cnc(N2CCC(c3nc(COc4ccc(/C=C/C(=O)O)cc4F)cs3)CC2)nc1
- Activity [1]: 55%

Compound: Cc1cc(/C=C2\CC(=O)NC2=O)ccc1OCc1csc(C2CCN(CC(C)(C)O)CC2)n1
- Activity [1]: 36%

Compound: CCc1cnc(N2CCC(c3nc(COc4ccc(/C=C5\SC(=O)NC5=O)cc4F)cs3)CC2)nc1
- Activity [1]: 60%
- EC50 [2]: 780 nM
